Article PMC11007962, “First-in-human study of GFH018, a small molecule inhibitor of transforming growth factor-β receptor I inhibitor, in patients with advanced solid tumors” (BMC Cancer, 2024)
Like-named read-outs stand apart in the source and are kept apart here.

System: patients with advanced solid tumors
[1] = 5 mg BID 14d-on/14d-off (N = 4)
[2] = 10 mg BID 14d-on/14d-off (N = 3)
[3] = 20 mg BID 14d-on/14d-off (N = 4)
[4] = 30 mg BID 14d-on/14d-off (N = 7)

Procedure: The study consisted of a dose-escalation part followed by an expansion part. In the dose escalation part, a 3-day pharmacokinetic (PK) lead-in period was conducted for a single dose in the first treatment cycle. Patients received GFH018 once on cycle 1 day 1 (C1D1) and underwent serial PK testing over the first 3 days. On C1D4, patients were administered the corresponding dose of GFH018 BID 14 days on/14 days off. The first cycle was defined as 31 days, including 3-day PK leading-in period with GFH018 single dosing and then 14d-on/14d-off dosing schedule. The subsequent cycles were 28 days. The starting dose of GFH018 was 5 mg, with eight planned dose levels up to 85 mg (5, 10, 20, 30, 40, 50, 65, and 85 mg). A modified 3+3 design was used to determine the maximum tolerance dose (MTD) and RDE, guided by safety/tolerability and PK data. Dose-limiting toxicities (DLTs) were evaluated during the first cycle at each dose level. The safety of 85 mg BID, 7 d-on/7 d-off, was explored after confirming the safety of 14 d-on/14 d-off. The DLTs were defined as hematological toxicities, including G4 neutropenia lasting for more than 5 days, G3 febrile neutropenia, G4 anemia, G4 thrombocytopenia, or G3 thrombocytopenia accompanied by bleeding, and ≥ G3 nonhematological toxicity (except for diarrhea, nausea, vomiting, and rash recovering ≤ G2 after supportive treatment within 3 days). The DLTs for cardiac toxicities included ≥ G2 cardiac valve abnormalities, ≥ G2 left ventricular ejection fraction (LVEF) decrease, any cardiovascular impairment shown in imaging, and abnormal highly sensitive troponin (hs-Tn) increased to ≥ twice the baseline in two consecutive tests with an interval ≥ 3 days. In the expansion part, patients were orally administered GFH018 RDE twice daily to further evaluate the safety of RDE and other dose regimens. […] The treatment cycle lasted 28 days.
All enrolled patients were monitored regularly after GFH018 administration. Safety assessments included adverse events (AEs), serious AEs (SAEs), laboratory assessments, vital signs, physical examinations, electrocardiography and echocardiography. AEs were graded according to the NCI Common Terminology Criteria for Adverse Events (NCI-CTCAE) v5.0. All AEs were followed up until they were stable or had recovered to baseline. Adverse events of special interest (AESIs) were predefined as echocardiographic abnormalities such as aggravated stenosis or regurgitation of the heart valves, clinically significant decreases in LVEF, brain natriuretic peptide (BNP) or N-terminal pro-brain natriuretic peptide (NT-proBNP) increases, and hs-Tn increases judged by investigators.
For the safety and efficacy analyses, data from patients who received GFH018 at the same dose in the dose-escalation and expansion cohorts were pooled. The demographic and baseline characteristics were summarized using descriptive methods. Safety and efficacy data were summarized for all patients who received at least one dose of GFH018. The ORR and DCR were summarized by cohort and overall. When the sample size of the analyzed group was ten or more, the Kaplan–Meier method was used to estimate the median PFS and TTP. In this study, treatment-emergent AEs (TEAEs) were defined as AEs that occurred on or after the first dosing date of GFH018 and no later than 30 days after the last dose of GFH018. The incidence and severity of AEs were descriptively summarized according to dose level. The PK parameters of GFH018 were calculated using noncompartmental analysis methods. All plasma PK data were summarized by cohort and visit day or time using descriptive statistics.

## Cc1cccc(-c2nn3c(c2-c2ccc4ncnn4c2/C=C/C(N)=O)CCC3)n1 [GFH018]
[1]
  At least one TEAE: 4 (100%) n (%)
  At least one TRAE: 4 (100%) n (%)
  TEAE: ALP increased: 0 n (%)
  TEAE: ALT increased: 0 n (%)
  TEAE: AST increased: 0 n (%)
  TEAE: Abdominal distention: 0 n (%)
  TEAE: Abdominal pain: 0 n (%)
  TEAE: Anemia: 0 n (%)
  TEAE: Asthenia: 0 n (%)
  TEAE: Bilirubin conjugated increased: 1 (25.0%) n (%)
  TEAE: Blood albumin decreased: 2 (50.0%) n (%)
  TEAE: Blood bilirubin increased: 0 n (%)
  TEAE: C-reactive protein increased: 2 (50.0%) n (%)
  TEAE: Constipation: 0 n (%)
  TEAE: Decreased appetite: 1 (25.0%) n (%)
  TEAE: GGT increased: 1 (25.0%) n (%)
  TEAE: Hypoalbuminemia: 0 n (%)
  TEAE: LDH increased: 1 (25.0%) n (%)
  TEAE: Lymphocyte count decreased: 4 (100%) n (%)
  TEAE: Platelet count decreased: 1 (25.0%) n (%)
  TEAE: Proteinuria: 1 (25.0%) n (%)
  TEAE: Sinus tachycardia: 2 (50.0%) n (%)
  TEAE: Urine protein present: 2 (50.0%) n (%)
  TEAE: White blood cell count decreased: 1 (25.0%) n (%)
  TEAE: White blood cells urine positive: 0 n (%)
  TRAE: ALP increased: 0 n (%)
  TRAE: ALT increased: 0 n (%)
  TRAE: AST increased: 0 n (%)
  TRAE: Anemia: 0 n (%)
  TRAE: GGT increased: 0 n (%)
  TRAE: LDH increased: 0 n (%)
  TRAE: Lymphocyte count decreased: 1 (25.0%) n (%)
  TRAE: Protein urine present: 1 (25.0%) n (%)
  TRAE: Proteinuria: 0 n (%)
  Treatment-emergent Proteinuria (grouped PTs), G1: 1 (25.0) n (%)
  Treatment-emergent Proteinuria (grouped PTs), G2: 2 (50.0) n (%)
  Treatment-emergent Proteinuria (grouped PTs), G3: 0 n (%)
  Treatment-emergent Proteinuria (grouped PTs: proteinuria and urine protein present), any grade: 3 (75.0) n (%)
[2]
  At least one TEAE: 3 (100%) n (%)
  At least one TRAE: 3 (100%) n (%)
  TEAE: ALP increased: 1 (33.3%) n (%)
  TEAE: ALT increased: 1 (33.3%) n (%)
  TEAE: AST increased: 0 n (%)
  TEAE: Abdominal distention: 0 n (%)
  TEAE: Abdominal pain: 0 n (%)
  TEAE: Anemia: 1 (33.3%) n (%)
  TEAE: Asthenia: 1 (33.3%) n (%)
  TEAE: Bilirubin conjugated increased: 0 n (%)
  TEAE: Blood albumin decreased: 1 (33.3%) n (%)
  TEAE: Blood bilirubin increased: 0 n (%)
  TEAE: C-reactive protein increased: 0 n (%)
  TEAE: Constipation: 1 (33.3%) n (%)
  TEAE: Decreased appetite: 0 n (%)
  TEAE: GGT increased: 2 (66.7%) n (%)
  TEAE: Hypoalbuminemia: 0 n (%)
  TEAE: LDH increased: 1 (33.3%) n (%)
  TEAE: Lymphocyte count decreased: 0 n (%)
  TEAE: Platelet count decreased: 0 n (%)
  TEAE: Proteinuria: 0 n (%)
  TEAE: Sinus tachycardia: 0 n (%)
  TEAE: Urine protein present: 2 (66.7%) n (%)
  TEAE: White blood cell count decreased: 0 n (%)
  TEAE: White blood cells urine positive: 0 n (%)
  TRAE: ALP increased: 1 (33.3%) n (%)
  TRAE: ALT increased: 1 (33.3%) n (%)
  TRAE: AST increased: 0 n (%)
  TRAE: Anemia: 1 (33.3%) n (%)
  TRAE: GGT increased: 2 (66.7%) n (%)
  TRAE: LDH increased: 1 (33.3%) n (%)
  TRAE: Lymphocyte count decreased: 0 n (%)
  TRAE: Protein urine present: 1 (33.3%) n (%)
  TRAE: Proteinuria: 0 n (%)
  Treatment-emergent Proteinuria (grouped PTs), G1: 0 n (%)
  Treatment-emergent Proteinuria (grouped PTs), G2: 2 (66.7) n (%)
  Treatment-emergent Proteinuria (grouped PTs), G3: 0 n (%)
  Treatment-emergent Proteinuria (grouped PTs: proteinuria and urine protein present), any grade: 2 (66.7) n (%)
[3]
  At least one TEAE: 4 (100%) n (%)
  At least one TRAE: 4 (100%) n (%)
  TEAE: ALP increased: 1 (25.0%) n (%)
  TEAE: ALT increased: 1 (25.0%) n (%)
  TEAE: AST increased: 0 n (%)
  TEAE: Abdominal distention: 1 (25.0%) n (%)
  TEAE: Abdominal pain: 0 n (%)
  TEAE: Anemia: 1 (25.0%) n (%)
  TEAE: Asthenia: 2 (50.0%) n (%)
  TEAE: Bilirubin conjugated increased: 1 (25.0%) n (%)
  TEAE: Blood albumin decreased: 1 (25.0%) n (%)
  TEAE: Blood bilirubin increased: 1 (25.0%) n (%)
  TEAE: C-reactive protein increased: 0 n (%)
  TEAE: Constipation: 0 n (%)
  TEAE: Decreased appetite: 0 n (%)
  TEAE: GGT increased: 0 n (%)
  TEAE: Hypoalbuminemia: 0 n (%)
  TEAE: LDH increased: 0 n (%)
  TEAE: Lymphocyte count decreased: 0 n (%)
  TEAE: Platelet count decreased: 0 n (%)
  TEAE: Proteinuria: 2 (50.0%) n (%)
  TEAE: Sinus tachycardia: 0 n (%)
  TEAE: Urine protein present: 2 (50.0%) n (%)
  TEAE: White blood cell count decreased: 1 (25.0%) n (%)
  TEAE: White blood cells urine positive: 1 (25.0%) n (%)
  TRAE: ALP increased: 0 n (%)
  TRAE: ALT increased: 0 n (%)
  TRAE: AST increased: 0 n (%)
  TRAE: Anemia: 0 n (%)
  TRAE: GGT increased: 0 n (%)
  TRAE: LDH increased: 0 n (%)
  TRAE: Lymphocyte count decreased: 0 n (%)
  TRAE: Protein urine present: 1 (25.0%) n (%)
  TRAE: Proteinuria: 2 (50.0%) n (%)
  Treatment-emergent Proteinuria (grouped PTs), G1: 3 (75.0) n (%)
  Treatment-emergent Proteinuria (grouped PTs), G2: 1 (25.0) n (%)
  Treatment-emergent Proteinuria (grouped PTs), G3: 0 n (%)
  Treatment-emergent Proteinuria (grouped PTs: proteinuria and urine protein present), any grade: 4 (100.0) n (%)
[4]
  At least one TEAE: 7 (100%) n (%)
  At least one TRAE: 7 (100%) n (%)
  TEAE: ALP increased: 1 (14.3%) n (%)
  TEAE: ALT increased: 2 (28.6%) n (%)
  TEAE: AST increased: 3 (42.9%) n (%)
  TEAE: Abdominal distention: 2 (28.6%) n (%)
  TEAE: Abdominal pain: 2 (28.6%) n (%)
  TEAE: Anemia: 3 (42.9%) n (%)
  TEAE: Asthenia: 2 (28.6%) n (%)
  TEAE: Bilirubin conjugated increased: 2 (28.6%) n (%)
  TEAE: Blood albumin decreased: 0 n (%)
  TEAE: Blood bilirubin increased: 3 (42.9%) n (%)
  TEAE: C-reactive protein increased: 0 n (%)
  TEAE: Constipation: 4 (57.1%) n (%)
  TEAE: Decreased appetite: 1 (14.3%) n (%)
  TEAE: GGT increased: 1 (14.3%) n (%)
  TEAE: Hypoalbuminemia: 3 (42.9%) n (%)
  TEAE: LDH increased: 3 (42.9%) n (%)
  TEAE: Lymphocyte count decreased: 1 (14.3%) n (%)
  TEAE: Platelet count decreased: 1 (14.3%) n (%)
  TEAE: Proteinuria: 4 (57.1%) n (%)
  TEAE: Sinus tachycardia: 1 (14.3%) n (%)
